Source: PubChem BioAssay (NCI)
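Tested at 5 concentrations; 48 h exposure; 96-well plates; endpoints linearly interpolated, else capped at highest concentration. At the GI50, growth is halved. TGI: concentration producing complete growth inhibition.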

Assays:
Experiment in all cases: inhibition of tumour cell growth, NCI panel, 48 h
[1] = tested on: NCI-H23 lung
[2] = tested on: COLO 205 colon
[3] = tested on: SK-OV-3 ovarian
[4] = tested on: SF-539 CNS
[5] = tested on: HT29 colon
[6] = tested on: HCC-2998 colon
[7] = tested on: MCF7 breast
[8] = tested on: MDA-MB-435
[9] = tested on: SNB-75 CNS
[10] = tested on: CAKI-1 renal
[11] = tested on: KM12 colon
[12] = tested on: UACC-62 melanoma
[13] = tested on: 786-0 renal
[14] = tested on: SK-MEL-5 melanoma
[15] = tested on: SK-MEL-2 melanoma
[16] = tested on: MDA-MB-468 breast
[17] = tested on: TK-10 renal
[18] = tested on: MDA-MB-231 breast
[19] = tested on: BT-549 breast
[20] = tested on: UACC-257 melanoma
[21] = tested on: SK-MEL-28 melanoma
[22] = tested on: NCI-H522 lung
[23] = tested on: NCI-H460 lung
[24] = tested on: PC-3 prostate
[25] = tested on: A549 NSCLC
[26] = tested on: HCT-15 colon
[27] = tested on: SF-268 CNS
[28] = tested on: SW-620 colon
[29] = tested on: OVCAR-3 ovarian
[30] = tested on: M14 melanoma
[31] = tested on: CCRF-CEM leukemia
[32] = tested on: HOP-62 NSCLC
[33] = tested on: ACHN renal
[34] = tested on: HCT-116 colon
[35] = tested on: MOLT-4 leukemia
[36] = tested on: T-47D breast
[37] = tested on: U251 CNS
[38] = tested on: OVCAR-8 ovarian
[39] = tested on: MALME-3M melanoma
[40] = tested on: SF-295 CNS
[41] = tested on: RPMI-8226 leukemia
[42] = tested on: HOP-92 NSCLC
[43] = tested on: OVCAR-4 ovarian
[44] = tested on: K-562 leukemia
[45] = tested on: IGROV1 ovarian
[46] = tested on: LOX IMVI melanoma
[47] = tested on: OVCAR-5 ovarian
[48] = tested on: SN12C renal
[49] = tested on: HL-60(TB) leukemia
[50] = tested on: UO-31 renal
[51] = tested on: RXF 393 renal
[52] = tested on: DU-145 prostate
[53] = tested on: NCI-H226 lung
[54] = tested on: HS 578T breast
[55] = tested on: A498 renal
[56] = tested on: SR leukemia
[57] = tested on: NCI/ADR-RES ovarian
[58] = tested on: EKVX NSCLC
[59] = tested on: SNB-19 CNS

In the case of `CCN1CCN(c2ccc(NC(=O)Nc3ccc4c(c3F)CCN4c3ccnc(C(=O)NC)c3)cc2C(F)(F)F)CC1`, the GI50 [1] is reported as 5.97 µM, the TGI [1] is reported as 12 µM and the GI50 [2] is reported as 10.7 µM. For the same molecule, the TGI [2] was > 37.3 µM, the GI50 [3] was 5.84 µM and the TGI [3] was 11.6 µM. The GI50 [4] was 2.35 µM, the TGI [4] was 7.24 µM and the GI50 [5] was 3.06 µM. The TGI [5] was 9.53 µM, the GI50 [6] was 6.44 µM and the TGI [6] was 12 µM. For the same molecule, the GI50 [7] was 5.93 µM, the TGI [7] was 13.1 µM and the GI50 [8] was 5.09 µM. For the same molecule, the TGI [8] was 10.4 µM, the GI50 [9] was 0.585 µM and the TGI [9] was 6.84 µM. For the same molecule, the GI50 [10] was 6.56 µM, the TGI [10] was 12 µM and the GI50 [11] was 0.341 µM. For the same molecule, the TGI [11] was 6.62 µM, the GI50 [12] was 6.18 µM and the TGI [12] was 11.3 µM. The GI50 [13] was 5.77 µM, the TGI [13] was 13.7 µM and the GI50 [14] was 6.1 µM. The TGI [14] was 11.3 µM, the GI50 [15] was > 37.3 µM and the TGI [15] was > 37.3 µM. For the same molecule, the GI50 [16] was 6.36 µM, the TGI [16] was 12.7 µM and the GI50 [17] was 7.52 µM. The TGI [17] was 13.1 µM, the GI50 [18] was 6.26 µM and the TGI [18] was 11.5 µM. For the same molecule, the GI50 [19] was 6.92 µM, the TGI [19] was 13.4 µM and the GI50 [20] was 6.27 µM. The TGI [20] was 12 µM, the GI50 [21] was 5.65 µM and the TGI [21] was 10.8 µM. The GI50 [22] was 7.1 µM, the TGI [22] was 13.8 µM and the GI50 [23] was 6.04 µM. For the same molecule, the TGI [23] was 12.3 µM, the GI50 [24] was 7.39 µM and the TGI [24] was 18.9 µM. It also gave a GI50 [25] of 6.75 µM, a TGI [25] of 13.5 µM and a GI50 [26] of 5.54 µM. For the same molecule, the TGI [26] was 12.1 µM, the GI50 [27] was 6.13 µM and the TGI [27] was 14 µM. The GI50 [28] was 5.07 µM, the TGI [28] was 11.1 µM and the GI50 [29] was 6.02 µM. For the same molecule, the TGI [29] was 11.6 µM, the GI50 [30] was 6.8 µM and the TGI [30] was 14.5 µM. The GI50 [31] was 6.25 µM, the TGI [31] was 24.4 µM and the GI50 [32] was 5.34 µM. It also gave a TGI [32] of 10.9 µM, a GI50 [33] of 5.9 µM and a TGI [33] of 10.9 µM. The GI50 [34] was 6.98 µM, the TGI [34] was 16.5 µM and the GI50 [35] was 2.09 µM. The TGI [35] was 16.3 µM, the GI50 [36] was > 37.3 µM and the TGI [36] was > 37.3 µM. The GI50 [37] was 4.8 µM, the TGI [37] was 9.97 µM and the GI50 [38] was 7.08 µM. It also gave a TGI [38] of 15.6 µM, a GI50 [39] of 5.49 µM and a TGI [39] of 10.5 µM. It also gave a GI50 [40] of 3.52 µM, a TGI [40] of 8.23 µM and a GI50 [41] of 7.73 µM. The TGI [41] was 30.9 µM, the GI50 [42] was 5.87 µM and the TGI [42] was 12.5 µM. It also gave a GI50 [43] of 6.3 µM, a TGI [43] of 13.7 µM and a GI50 [44] of 7.43 µM. For the same molecule, the TGI [44] was > 37.3 µM, the GI50 [45] was 6.66 µM and the TGI [45] was 12.2 µM. For the same molecule, the GI50 [46] was 5.54 µM, the TGI [46] was 10.7 µM and the GI50 [47] was 5.82 µM. For the same molecule, the TGI [47] was 10.8 µM, the GI50 [48] was 5.88 µM and the TGI [48] was 11.2 µM. For the same molecule, the GI50 [49] was 6.65 µM, the TGI [49] was 15.7 µM and the GI50 [50] was 5.43 µM. The TGI [50] was 10.3 µM, the GI50 [51] was 1.35 µM and the TGI [51] was 6.03 µM. It also gave a GI50 [52] of 6.45 µM, a TGI [52] of 11.9 µM and a GI50 [53] of 6.58 µM. For the same molecule, the TGI [53] was 14.7 µM, the GI50 [54] was 4.9 µM and the TGI [54] was 13.2 µM. For the same molecule, the GI50 [55] was 5.77 µM, the TGI [55] was 10.9 µM and the GI50 [56] was 5.44 µM. The TGI [56] was 18.7 µM, the GI50 [57] was 6.87 µM and the TGI [57] was 16 µM. For the same molecule, the GI50 [58] was 6.71 µM, the TGI [58] was 12.6 µM and the GI50 [59] was 5.95 µM. For the same molecule, the TGI [59] was 11.2 µM.
`O=C1Nc2cc(Cl)ccc2/C1=C/c1cccc(OCc2ccc(Br)cc2F)c1` was tested, and the GI50 [1] was 3.88 µM, the TGI [1] was > 100 µM and the GI50 [2] was 3.42 µM. The TGI [2] was > 100 µM, the GI50 [3] was 14.6 µM and the TGI [3] was > 100 µM. It also gave a GI50 [4] of 1.99 µM, a TGI [4] of 4.34 µM and a GI50 [6] of 3.71 µM. For the same molecule, the TGI [6] was > 100 µM, the GI50 [7] was 0.642 µM and the TGI [7] was 27.8 µM. It also gave a GI50 [8] of 1.82 µM, a TGI [8] of 3.41 µM and a GI50 [9] of 1.83 µM. The TGI [9] was 5.11 µM, the GI50 [10] was 2.54 µM and the TGI [10] was 13.9 µM. The GI50 [11] was 3.65 µM, the TGI [11] was 41 µM and the GI50 [12] was 2.49 µM. For the same molecule, the TGI [12] was 8.8 µM, the GI50 [13] was 3.79 µM and the TGI [13] was > 100 µM. It also gave a GI50 [14] of 3.03 µM, a TGI [14] of 10.9 µM and a GI50 [15] of 2.16 µM. For the same molecule, the TGI [15] was 5.35 µM, the GI50 [16] was 2.43 µM and the TGI [16] was 8.88 µM. The GI50 [17] was 14.3 µM, the TGI [17] was > 100 µM and the GI50 [18] was 2.63 µM. The TGI [18] was 12.5 µM, the GI50 [20] was 8.5 µM and the TGI [20] was > 100 µM. For the same molecule, the GI50 [21] was 4.47 µM, the TGI [21] was 24.1 µM and the GI50 [24] was 3.89 µM. The TGI [24] was > 100 µM, the GI50 [25] was 4.66 µM and the TGI [25] was > 100 µM. It also gave a GI50 [26] of 2.67 µM, a TGI [26] of 12.3 µM and a GI50 [27] of 3.33 µM. For the same molecule, the TGI [27] was > 100 µM, the GI50 [28] was 2.89 µM and the TGI [28] was > 100 µM. It also gave a GI50 [29] of 2.53 µM, a TGI [29] of 7.82 µM and a GI50 [30] of 2.17 µM. The TGI [30] was 5.71 µM, the GI50 [31] was 2.91 µM and the TGI [31] was 10.9 µM. The GI50 [32] was 4.02 µM, the TGI [32] was 34.2 µM and the GI50 [33] was 3.94 µM. For the same molecule, the TGI [33] was > 100 µM, the GI50 [34] was 3.1 µM and the TGI [34] was > 100 µM. The GI50 [35] was 2.92 µM, the TGI [35] was 9.41 µM and the GI50 [36] was 3.67 µM. For the same molecule, the TGI [36] was > 100 µM, the GI50 [37] was 3.79 µM and the TGI [37] was > 100 µM. For the same molecule, the GI50 [38] was 4.32 µM, the TGI [38] was > 100 µM and the GI50 [39] was 4.15 µM. The TGI [39] was 20.9 µM, the GI50 [40] was 3.16 µM and the TGI [40] was 14.9 µM. The GI50 [41] was 2.35 µM, the TGI [41] was 12.6 µM and the GI50 [42] was 2.33 µM. It also gave a TGI [42] of 12.4 µM, a GI50 [43] of 3.55 µM and a TGI [43] of 47.2 µM. For the same molecule, the GI50 [44] was 2.67 µM, the TGI [44] was 8.56 µM and the GI50 [45] was 2.71 µM. The TGI [45] was 97.7 µM, the GI50 [46] was 2.49 µM and the TGI [46] was 8.24 µM. The GI50 [47] was 8.48 µM, the TGI [47] was > 100 µM and the GI50 [48] was 4.11 µM. The TGI [48] was > 100 µM, the GI50 [49] was 1.85 µM and the TGI [49] was 4.53 µM. For the same molecule, the GI50 [50] was 2.05 µM, the TGI [50] was > 100 µM and the GI50 [51] was 4.47 µM. For the same molecule, the TGI [51] was 50.4 µM, the GI50 [52] was 5.97 µM and the TGI [52] was > 100 µM. The GI50 [53] was 3.09 µM, the TGI [53] was > 100 µM and the GI50 [54] was 2.17 µM. For the same molecule, the TGI [54] was 5.82 µM, the GI50 [55] was 7.92 µM and the TGI [55] was 57.2 µM. For the same molecule, the GI50 [56] was 2.15 µM, the TGI [56] was 5.07 µM and the GI50 [58] was 3.23 µM. For the same molecule, the TGI [58] was > 100 µM, the GI50 [59] was 3.9 µM and the TGI [59] was > 100 µM.
